According to ChEMBL document CHEMBL1201862, “PubChem BioAssay data set” (2004):
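96-well plates; 48 h exposure; 5 concentrations. Endpoints by linear interpolation between flanking doses. Not reached: highest tested concentration assigned. At the GI50, growth is halved.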 Active and inactive are the calls of the source. No stated cut-off is given here; in the data, active = GI50 up to about 1.1 µM and inactive = higher.

Assays:
Test in all cases: growth of human tumour cells (NCI), 48 h
A498 = test system: A498
A549 = test system: A549
DU-145 = test system: DU-145
IGROV-1 = test system: IGROV-1
LOX IMVI = test system: LOX IMVI
MCF7 = test system: MCF7
MDA-MB-435 = test system: MDA-MB-435
NCI-H460 = test system: NCI-H460
OVCAR-3 = test system: OVCAR-3
SF-295 = test system: SF-295
SK-MEL-28 = test system: SK-MEL-28
SK-MEL-2 = test system: SK-MEL-2
SK-MEL-5 = test system: SK-MEL-5
SNB-19 = test system: SNB-19
SNB-75 = test system: SNB-75
SW-620 = test system: SW-620
TK-10 = test system: TK-10
U-251 = test system: U-251
UO-31 = test system: UO-31
RPMI-8226 = test system: RPMI-8226

Compound | GI50 (A498) | GI50 (A549) | GI50 (DU-145) | GI50 (IGROV-1) | GI50 (LOX IMVI) | GI50 (MCF7) | GI50 (MDA-MB-435) | GI50 (NCI-H460) | GI50 (OVCAR-3) | GI50 (SF-295) | GI50 (SK-MEL-28) | GI50 (SK-MEL-2) | GI50 (SK-MEL-5) | GI50 (SNB-19) | GI50 (SNB-75) | GI50 (SW-620) | GI50 (TK-10) | GI50 (U-251) | GI50 (UO-31) | GI50 (RPMI-8226)
COc1cccc(/C=C2\S/C(=N/Nc3nc(C)c(C)s3)NC2=O)c1O | > 100 µM (inactive) | > 100 µM (inactive) | > 100 µM (inactive) | 34.3 µM (inactive) | 95.7 µM (inactive) | > 100 µM (inactive) | > 100 µM (inactive) | > 100 µM (inactive) | 87.1 µM (inactive) | > 100 µM (inactive) | > 100 µM (inactive) | > 100 µM (inactive) | 50.2 µM (inactive) | > 100 µM (inactive) | > 100 µM (inactive) | > 100 µM (inactive) | > 100 µM (inactive) | > 100 µM (inactive) | 74.1 µM (inactive) | 
COC(=O)c1c(C)cccc1/C=C1/Cc2c(C)cccc2C1=O | 88.9 µM (inactive) | > 100 µM (inactive) | > 100 µM (inactive) | > 100 µM (inactive) | 20.5 µM (inactive) | 8.97 µM (inactive) | > 100 µM (inactive) | 67.9 µM (inactive) | > 100 µM (inactive) | > 100 µM (inactive) | > 100 µM (inactive) |  | 9.93 µM (inactive) |  | > 100 µM (inactive) | > 100 µM (inactive) | > 100 µM (inactive) | 90.6 µM (inactive) | > 100 µM (inactive) | 3.44 µM (inactive)
Cc1nn(C(=O)Cc2ccccc2)c2c1C(c1ccc(Cl)cc1)SC(=N)N2 (stereo unspecified) | > 100 µM (inactive) | > 100 µM (inactive) | > 100 µM (inactive) | > 100 µM (inactive) | > 100 µM (inactive) | > 100 µM (inactive) | > 100 µM (inactive) | > 100 µM (inactive) |  | > 100 µM (inactive) | > 100 µM (inactive) |  | > 100 µM (inactive) |  | 17.2 µM (inactive) | > 100 µM (inactive) | > 100 µM (inactive) |  |  | > 100 µM (inactive)
Cc1cc(N(CCC#N)S(=O)(=O)c2ccccc2)ccc1/C=N/c1ccc(C(=O)O)cc1 | 29.6 µM (inactive) | 31.6 µM (inactive) | > 100 µM (inactive) | 30 µM (inactive) | 13.2 µM (inactive) | > 100 µM (inactive) | > 100 µM (inactive) | 19.1 µM (inactive) | 10.1 µM (inactive) | 29.1 µM (inactive) | 15.3 µM (inactive) | 6.7 µM (inactive) | 13.8 µM (inactive) | 29.6 µM (inactive) | 14 µM (inactive) | 7.43 µM (inactive) | 8.73 µM (inactive) | 21.3 µM (inactive) | 11.1 µM (inactive) | 
C=C(CC)C[C@@H]1C[C@]2(C(=O)OC)c3[nH]c4ccccc4c3CCN2C1=O | 17.6 µM (inactive) | 14.7 µM (inactive) | 30.4 µM (inactive) | 20.3 µM (inactive) | 17.3 µM (inactive) | 20.7 µM (inactive) | 19.3 µM (inactive) | 21.1 µM (inactive) | 14.1 µM (inactive) | 14.7 µM (inactive) | 19.5 µM (inactive) | 17.1 µM (inactive) | 17.1 µM (inactive) | 17.8 µM (inactive) | 21.3 µM (inactive) | 16.4 µM (inactive) | 35.3 µM (inactive) | 21.1 µM (inactive) | 17.9 µM (inactive) | 
O=c1[nH]c(-c2ccc(Cl)cc2)cc2ccsc12 |  | 3.5 µM (inactive) | 2.05 µM (inactive) | 3.49 µM (inactive) | 4.36 µM (inactive) | 5.05 µM (inactive) | 0.453 µM (active) | 4.74 µM (inactive) | 1.66 µM (inactive) | 3.42 µM (inactive) | 5.15 µM (inactive) | 3.21 µM (inactive) | 4.41 µM (inactive) | 2.49 µM (inactive) | 3.66 µM (inactive) | 4.69 µM (inactive) | 2.82 µM (inactive) | 3.14 µM (inactive) | 5.94 µM (inactive) | 3.1 µM (inactive)
COc1ccc(N2C(=O)C3c4[nH]c5ccc(Br)cc5c4C4CCC(C(C)(C)C)CC4C3C2=O)cc1 (stereo unspecified) | > 100 µM (inactive) | > 100 µM (inactive) | > 100 µM (inactive) | > 100 µM (inactive) | > 100 µM (inactive) | > 100 µM (inactive) | > 100 µM (inactive) | > 100 µM (inactive) | > 100 µM (inactive) | > 100 µM (inactive) | > 100 µM (inactive) | > 100 µM (inactive) | > 100 µM (inactive) | > 100 µM (inactive) |  | > 100 µM (inactive) | > 100 µM (inactive) | > 100 µM (inactive) |  | > 100 µM (inactive)
O=P1(NCCCl)OCCC(OO)N1CCCl (stereo unspecified) |  | > 71.9 µM (inactive) | 54 µM (inactive) | > 100 µM (inactive) | 1.82 µM (inactive) | 24.9 µM (inactive) | 56.1 µM (inactive) | 37.8 µM (inactive) | 23.2 µM (inactive) | 1.72 µM (inactive) | 18.9 µM (inactive) | 37.7 µM (inactive) | 93.5 µM (inactive) | > 52 µM (inactive) | 32.7 µM (inactive) | 15.7 µM (inactive) | 20 µM (inactive) | 32.4 µM (inactive) | > 64.3 µM (inactive) | 7.03 µM (inactive)
